Converted amounts (≈) assume the structure as drawn. Structures can show the parent of a compound that is named as a salt. Where two headings read alike, the source gives them in different places.
Key:
[1] = Stability in USP simulated gastric juice; assay type: in vitro ADME; details: USP SGF pH 1.1, pepsin […], prodrug 20 μg/mL
From the text: To minimize the direct inhibitory action of this drug on gastric emptying/gut motility—and resultant nausea—the prodrug should not undergo premature chemical or enzymic cleavage back to the parent drug while within the gut lumen.

[2] = Stability in simulated intestinal juice (FeSSIF); assay type: in vitro ADME; details: FeSSIF pH 5.0, pancreatin 1%
Experimental: To avoid direct interaction between the active drug and the gut microfloral population, the prodrug should not undergo premature chemical or enzymic cleavage back to the parent dug while within the gut lumen. To confirm this the prodrugs were incubated with USP SGF (simulated gastric fluid), FeSSIF (fed state simulated intestinal fluid) and FaSSIF (fasted state simulated intestinal fluid) and remaining prodrug and any generated active drug assayed by use of a qualified LC-MS/MS analytical method.
Pancreatin was again added at 1%.
To minimize the direct inhibitory action of this drug on gastric emptying/gut motility—and resultant nausea—the prodrug should not undergo premature chemical or enzymic cleavage back to the parent drug while within the gut lumen. To confirm this, the prodrugs were incubated with USP SGF (simulated gastric fluid), FeSSIF (fed state simulated intestinal fluid) and FaSSIF (fasted state simulated intestinal fluid) and remaining prodrug, and any generated active drug, assayed by use of a qualified LC-MS/MS analytical method.
To avoid direct interaction between the active drug and the gut, the prodrug should not undergo premature chemical or enzymic cleavage back to the parent dug while within the gut lumen. To confirm this the prodrugs were incubated with USP SGF (simulated gastric fluid), FeSSIF (fed state simulated intestinal fluid) and FaSSIF (fasted state simulated intestinal fluid) and remaining prodrug and any generated active drug assayed by use of a qualified LC-MS/MS analytical method.

Eggerthella lenta = assay: MIC, clindamycin prodrugs; assay type: cell-based
[3] = relative bioavailability of clindamycin vs dosing clindamycin itself, male rats, mean
Experimental: Serial tail vein blood samples were subsequently collected via an indwelling cannuala into EDTA tubes containing a stabilising cocktail (including 6 mg/mL NaF) to prevent post collection enzymic hydrolysis of the prodrug.

Clostridium bifermentans = details: ATCC 638
Clostridium novyi [4] = details: ATCC 19402
Clostridium sordellii = details: NCTC 13356
[5] = test system: Fusobacterium necrophorum; details: clinical isolate
Fusobacterium nucleatum = details: clinical isolate
[6] = test system: Peptostreptococcus magnus; details: clinical isolate
[7] = test system: Peptostreptococcus micros; details: clinical isolate
[8] = test system: Porphyromonas endodontalis; details: clinical isolate
Prevotella intermedia [9] = details: clinical isolate
Prevotella oralis = details: clinical isolate
Veillonella spp. [10] = details: clinical isolate
Enterococcus faecalis = details: ATCC 29212 antibiotic-susceptible type strain
Enterococcus faecium [11] = details: vancomycin-susceptible clinical isolate
Corynebacterium jeikeium = details: antibiotic-susceptible clinical isolate
Streptococcus agalactiae [12] = details: antibiotic-susceptable clinical isolate
[13] = test system: Streptococcus constellatus; details: antibiotic-susceptible clinical isolate
Streptococcus oralis = details: antibiotic-susceptible clinical isolate
Clostridium novyi [14] = assay: microbe, parasite or virus in culture; details: ATCC19402, read-out: Minimum inhibitory concentration
[15] = test system: Peptostreptococcus magnus; assay: microbe, parasite or virus in culture; details: Finegoldia magna, read-out: Minimum inhibitory concentration
[16] = test system: Peptostreptococcus micros; assay: microbe, parasite or virus in culture; details: Parvimonas micra, read-out: Minimum inhibitory concentration
[17] = test system: Porphyromonas assacharolyticus; assay: microbe, parasite or virus in culture; details: read-out: Minimum inhibitory concentration
Prevotella bivia = assay: microbe, parasite or virus in culture; details: ATCC29303, read-out: Minimum inhibitory concentration
Prevotella intermedia [18] = assay: microbe, parasite or virus in culture; details: read-out: Minimum inhibitory concentration
Veillonella spp. [19] = assay: microbe, parasite or virus in culture; details: read-out: Minimum inhibitory concentration
Enterococcus faecium [20] = assay: microbe, parasite or virus in culture; details: read-out: Minimum inhibitory concentration
Listeria monocytogenes = assay: microbe, parasite or virus in culture; details: read-out: Minimum inhibitory concentration
Streptococcus agalactiae [21] = assay: microbe, parasite or virus in culture; details: read-out: Minimum inhibitory concentration
Group G Streptococcus = assay: microbe, parasite or virus in culture; details: read-out: Minimum inhibitory concentration
[22] = test system: Streptococcus constellatus; assay: microbe, parasite or virus in culture; details: read-out: Minimum inhibitory concentration
[23] = antibiotic-susceptible clinical isolate
[24] = ribotype 002 - clinical isolate
[25] = ribotype 011 - clinical isolate
[26] = ribotype 027 - clinical isolate
[27] = ribotype 050 - clinical isolate
[28] = ribotype 176 - clinical isolate

## CCCC1CC(C(=O)NC(C(C)Cl)C2OC(SC)C(OC(=O)CCCC(=O)Nc3ccc(C(=O)O)cc3)C(O)C2O)N(C)C1.O=C(O)C(F)(F)F (stereo not shown) [Clindamycin glutaryl PABA ester, Clindamycin-2-(glutaryl-PABA) ester trifluoroacetate]
[1]
  Simulated gastric juice (1 h, 37° C.) % active drug generated: <1%
[2]
  Simulated intestinal juice (2 h, 37° C.) (FeSSIF) % active drug generated: <1%
Eggerthella lenta; ATCC 43055
  Minimum inhibitory concentration: 16 µg/mL
Eggerthella lenta; clinical isolate
  Minimum inhibitory concentration: 16 µg/mL
[3]
  Frel: 51%
[3]; listed as Clindamycin glutaryl PABA ethyl ester
  Frel: 51%
Clostridium bifermentans
  Minimum inhibitory concentration: 32 µg/mL
Clostridium difficile; ATCC 700057
  Minimum inhibitory concentration: >64 µg/mL
Clostridium difficile; NCTC 13366 - NAP1/027
  Minimum inhibitory concentration: >64 µg/mL
Clostridium difficile; [23]
  Minimum inhibitory concentration: >64 µg/mL
Clostridium difficile; [24]
  Minimum inhibitory concentration: >64 µg/mL
Clostridium difficile; [25]
  Minimum inhibitory concentration: >64 µg/mL
Clostridium difficile; [26]
  Minimum inhibitory concentration: >64 µg/mL
Clostridium difficile; [27]
  Minimum inhibitory concentration: >64 µg/mL
Clostridium difficile; [28]
  Minimum inhibitory concentration: >64 µg/mL
Clostridium novyi [4]
  Minimum inhibitory concentration: 4 µg/mL
Clostridium sordellii
  Minimum inhibitory concentration: >64 µg/mL
[5]
  Minimum inhibitory concentration: 1 µg/mL
Fusobacterium nucleatum
  Minimum inhibitory concentration: 2 µg/mL
[6]
  Minimum inhibitory concentration: 64 µg/mL
[7]
  Minimum inhibitory concentration: 8 µg/mL
[8]
  Minimum inhibitory concentration: 0.12 µg/mL
Prevotella intermedia [9]
  Minimum inhibitory concentration: 0.12 µg/mL
Prevotella oralis
  Minimum inhibitory concentration: ≦0.03 ug/mL
Veillonella spp. [10]
  Minimum inhibitory concentration: 1 µg/mL
Enterococcus faecalis
  Minimum inhibitory concentration: >64 µg/mL
Enterococcus faecium [11]
  Minimum inhibitory concentration: >64 µg/mL
Corynebacterium jeikeium
  Minimum inhibitory concentration: >64 µg/mL
Streptococcus agalactiae [12]
  Minimum inhibitory concentration: 2 µg/mL
[13]
  Minimum inhibitory concentration: 2 µg/mL
Streptococcus oralis
  Minimum inhibitory concentration: 0.5 µg/mL

## CCCC1CC(C(=O)NC(C(C)Cl)C2OC(SC)C(OC(=O)CCC(=O)N[C@H](C(=O)O)C(C)C)C(O)C2O)N(C)C1 (stereo partly drawn) [Clindamycin succinyl valine ester, Clindamycin-2-[succinyl-(S)-valine]ester trifluoroacetate]
[1]
  Simulated gastric juice (1 h, 37° C.) % active drug generated: <1%
[2]
  Simulated intestinal juice (2 h, 37° C.) (FeSSIF) % active drug generated: <1%
Eggerthella lenta; ATCC 43055
  Minimum inhibitory concentration: 8 µg/mL
Eggerthella lenta; clinical isolate
  Minimum inhibitory concentration: 8 µg/mL
[3]
  Frel: 8%
Clostridium bifermentans
  Minimum inhibitory concentration: 4 µg/mL
Clostridium difficile; ATCC 700057
  Minimum inhibitory concentration: >64 µg/mL
Clostridium difficile; NCTC 13366 - NAP1/027
  Minimum inhibitory concentration: 64 µg/mL
Clostridium difficile; [23]
  Minimum inhibitory concentration: >64 µg/mL
Clostridium difficile; [24]
  Minimum inhibitory concentration: 64 µg/mL
Clostridium difficile; [25]
  Minimum inhibitory concentration: 64 µg/mL
Clostridium difficile; [26]
  Minimum inhibitory concentration: 64 µg/mL
Clostridium difficile; [27]
  Minimum inhibitory concentration: 32 µg/mL
Clostridium difficile; [28]
  Minimum inhibitory concentration: >64 µg/mL
Clostridium novyi [4]
  Minimum inhibitory concentration: 0.5 µg/mL
Clostridium sordellii
  Minimum inhibitory concentration: 16 µg/mL
[5]
  Minimum inhibitory concentration: 0.12 µg/mL
Fusobacterium nucleatum
  Minimum inhibitory concentration: 0.25 µg/mL
[6]
  Minimum inhibitory concentration: 16 µg/mL
[7]
  Minimum inhibitory concentration: 2 µg/mL
[8]
  Minimum inhibitory concentration: 0.12 µg/mL
Prevotella intermedia [9]
  Minimum inhibitory concentration: 0.12 µg/mL
Prevotella oralis
  Minimum inhibitory concentration: ≦0.03 ug/mL
Veillonella spp. [10]
  Minimum inhibitory concentration: 0.5 µg/mL
Enterococcus faecalis
  Minimum inhibitory concentration: >64 µg/mL
Enterococcus faecium [11]
  Minimum inhibitory concentration: >64 µg/mL
Corynebacterium jeikeium
  Minimum inhibitory concentration: >64 µg/mL
Streptococcus agalactiae [12]
  Minimum inhibitory concentration: 1 µg/mL
[13]
  Minimum inhibitory concentration: 1 µg/mL
Streptococcus oralis
  Minimum inhibitory concentration: 0.25 µg/mL

## CCC[C@@H]1C[C@@H](C(=O)N[C@@H]([C@H]2O[C@H](SC)[C@H](O)[C@@H](O)[C@H]2O)[C@H](C)Cl)N(C)C1 [Clindamycin, clindamycin, reference compound]
Clostridium novyi [14]
  MIC: ≤ 0.03 µg/mL
[15]
  MIC: 0.5 µg/mL (≈ 1.18 µM)
[16]
  MIC: 0.06 µg/mL (≈ 0.141 µM)
[17]
  MIC: ≤ 0.03 µg/mL
Prevotella bivia
  MIC: ≤ 0.03 µg/mL
Prevotella intermedia [18]
  MIC: ≤ 0.03 µg/mL
Veillonella spp. [19]
  MIC: ≤ 0.03 µg/mL
Enterococcus faecium [20]
  MIC: 32 µg/mL (≈ 75.3 µM)
Listeria monocytogenes
  MIC: 1 µg/mL (≈ 2.35 µM)
Streptococcus agalactiae [21]
  MIC: ≤ 0.03 µg/mL
Group G Streptococcus
  MIC: ≤ 0.03 µg/mL
[22]
  MIC: ≤ 0.03 µg/mL

Source: patent publication US20120202756A1, “USE OF PRODRUGS TO AVOID GI MEDIATED ADVERSE EVENTS” (priority 2009, published 2012)
